Source: US10231453B2, “5-substituted imidazole derivatives” (BAYER CROPSCIENCE AKTIENGESELLSCHAFT, priority 2015, dated 2019)
Read-outs that look alike come from different tables or passages of the source.

Tests used:
[1] = test system: Blumeria graminis fsp. hordei; assay: In vivo preventive Blumeria test (barley), Example K; settings: 168 h, 500 ppm of active ingredient, preventive spray, evaluated 7 days after inoculation, read-out: efficacy
Text: After the spray coating has been dried, the plants are dusted with spores of Blumeria graminis fsp. hordei.

Alternaria solani = assay: In vivo preventive Alternaria test (tomatoes), Example H; settings: 72 h, 100 ppm of active ingredient, preventive spray, evaluated 3 days after inoculation, read-out: efficacy
Puccinia recondita = assay: In vivo preventive test on Puccinia recondita (brown rust on wheat), Examples C and R3; settings: Puccinia recondita, 264 h, preventive spray, evaluated 11 days after inoculation
Pyrenophora teres = assay: In vivo preventive test on Pyrenophora teres (net blotch on barley), Examples D, Q2 and R4; settings: for pest or weed control at 500 ppm / pest or weed control at 100 ppm: Pyrenophora teres, 336 h
Botrytis cinerea [2] = assay: In vivo preventive test on Botrytis cinerea (grey mould) on gherkin, Examples B, Q1 and R2
Fusarium culmorum [3] = assay: In vitro test for the calculation of the ED50-value with microorganisms, Example Q4: Fusarium culmorum; assay type: cell-based; settings: liquid culture, spore suspension, 4 to 7 days incubation, spectrometric measurement of mycelium growth
Description: • Solvent: Dimethyl sulfoxide • Culture medium: 14.6 g anhydrous D-glucose (VWR), 7.1 g Mycological Peptone (Oxoid), 1.4 g granulated Yeast Extract (Merck), QSP liter • Inoculum: Spore suspension
Fungicides were solubilized in DMSO and the solution used to prepare the required range of concentrations. The final concentration of DMSO used in the assay was ≤1%.
A spore suspension was prepared and diluted to the desired spore density.
Fungicides were evaluated for their ability to inhibit spore germination and mycelium growth in liquid culture assay. The compounds were added in the desired concentration to the culture medium with spores. After 4 to 7 days incubation, fungi-toxicity of compounds was determined by spectrometric measurement of mycelium growth. Inhibition of fungal growth was determined by comparing the absorbance values in wells containing the fungicides with the absorbance in control wells without fungicides.

[4] = test system: Fusarium nivale (var. majus); assay: In vivo preventive Fusarium nivale (var. majus) test (wheat), Example O; settings: Microdochium nivale, 120 h, 500 ppm of active ingredient, preventive spray, evaluated 5 days after inoculation, read-out: efficacy
Text: After the spray coating has been dried, the plants are slightly injured by using a sandblast and afterwards they are sprayed with a conidia suspension of Fusarium nivale (var. majus).

Sphaerotheca fuliginea = assay: In vivo preventive test on Sphaerotheca fuliginea (powdery mildew on cucurbits), Examples F and R6; settings: Podosphaera fuliginea, 360 h, preventive spray, evaluated 15 days after inoculation
Phakopsora pachyrhizi = assay: In vivo preventive Phakopsora test (soybeans), Example I; settings: 168 h, 100 ppm of active ingredient, preventive spray, evaluated 7 days after inoculation, read-out: efficacy
Leptosphaeria nodorum [5] = assay: In vivo preventive Leptosphaeria nodorum test (wheat), Example N; settings: Parastagonospora nodorum, 192 h, 500 ppm of active ingredient, preventive spray, evaluated 8 days after inoculation, read-out: efficacy
Text: After the spray coating has been dried, the plants are sprayed with a spore suspension of Leptosphaeria nodorum.

Septoria tritici [6] = assay: In vivo preventive test on Septoria tritici (leaf spot on wheat), Examples E, Q3 and R5; settings: for pest or weed control at 500 ppm / pest or weed control at 100 ppm: Zymoseptoria tritici, 576 h
Septoria tritici [7] = assay: In vitro test for the calculation of the ED50-value with microorganisms, Example Q4: Septoria tritici; assay type: cell-based; settings: liquid culture, spore suspension, 4 to 7 days incubation, spectrometric measurement of mycelium growth
Fusarium culmorum [8] = assay: In vivo preventive Fusarium culmorum test (wheat), Example L; settings: 120 h, 500 ppm of active ingredient, preventive spray, evaluated 5 days after inoculation, read-out: efficacy
Description: After the spray coating has been dried, the plants are slightly injured by using a sandblast and afterwards they are sprayed with a conidia suspension of Fusarium culmorum.
The test is evaluated 5 days after the inoculation.

Botrytis cinerea [9] = assay: In vitro test for the calculation of the ED50-value with microorganisms, Example Q4: Botrytis cinerea; assay type: cell-based; settings: liquid culture, spore suspension, 4 to 7 days incubation, spectrometric measurement of mycelium growth
Leptosphaeria nodorum [10] = assay: In vitro test for the calculation of the ED50-value with microorganisms, Example Q4: Leptosphaeria nodorum; assay type: cell-based; settings: liquid culture, spore suspension, 4 to 7 days incubation, spectrometric measurement of mycelium growth
Uromyces appendiculatus = assay: In vivo preventive test on Uromyces appendiculatus (bean rust), Examples G and R7; settings: 264 h, preventive spray, evaluated 11 days after inoculation
Venturia inaequalis = assay: In vivo preventive Venturia test (apples), Example J; settings: 240 h, read-out: efficacy
Description: After the spray coating has dried on, the plants are inoculated with an aqueous conidia suspension of the causal agent of apple scab (Venturia inaequalis) and then remain for 1 day in an incubation cabinet at approximately 20° C. and a relative atmospheric humidity of 100%.
The plants are then placed in a greenhouse at approximately 21° C. and a relative atmospheric humidity of approximately 90%.
The test is evaluated 10 days after the inoculation.

Fusarium graminearum = assay: whole plant or invertebrate; assay type: in vivo; settings: in Hordeum vulgare, 120 h, read-out: efficacy

Compound: N#Cc1cncn1CC(O)(Cc1ccc(Cl)cc1F)C1(Cl)CC1 (stereo not shown) [Example I-29]
- pest or weed control at 500 ppm [1]: 90 to 100%
- pest or weed control at 100 ppm (Alternaria solani): 90 to 100%
- pest or weed control at 500 ppm (Puccinia recondita; 500 ppm of active ingredient, wheat, read-out: efficacy): 90 to 100%
- pest or weed control at 100 ppm (Puccinia recondita; Example R3, wheat, 100 ppm, read-out: Efficacy in %): 94%
- pest or weed control at 500 ppm (Puccinia recondita; Example R3, wheat, 500 ppm, read-out: Efficacy in %): 98%
- pest or weed control at 500 ppm (Pyrenophora teres; 500 ppm of active ingredient, preventive spray, evaluated 14 days after inoculation, read-out: efficacy): 80 to 89%
- pest or weed control at 100 ppm (Pyrenophora teres; Example Q2, rate of application 100 ppm, read-out: Efficacy in %): 83%
- pest or weed control at 500 ppm (Pyrenophora teres; Example Q2, rate of application 500 ppm, read-out: Efficacy in %): 89%
- pest or weed control at 100 ppm (Pyrenophora teres; Example R4, rate of application 100 ppm, read-out: Efficacy in %): 83%
- pest or weed control at 500 ppm (Pyrenophora teres; Example R4, rate of application 500 ppm, read-out: Efficacy in %): 89%
- pest or weed control at 500 ppm (Botrytis cinerea [2]; Botrytis cinerea, 500 ppm of active ingredient, preventive spray, evaluated 4 to 5 days after inoculation, read-out: efficacy): 90 to 100%
- pest or weed control at 100 ppm (Botrytis cinerea [2]; Botrytis cinerea, Example Q1, rate of application 100 ppm, read-out: Efficacy in %): 86%
- pest or weed control at 500 ppm (Botrytis cinerea [2]; Botrytis cinerea, Example Q1, rate of application 500 ppm, read-out: Efficacy in %): 99%
- Efficacy in % (Botrytis cinerea [2]; Example R2, rate of application 100 ppm): 86%
- Efficacy in % (Botrytis cinerea [2]; Example R2, rate of application 500 ppm): 99%
- Fusarium culmorum ED50 value in ppm (Fusarium culmorum [3]): 0.01 ppm
- pest or weed control at 500 ppm [4]: 90 to 100%
- pest or weed control at 500 ppm (Sphaerotheca fuliginea; 500 ppm of active ingredient, gherkin, read-out: efficacy): 90 to 100%
- pest or weed control at 100 ppm (Sphaerotheca fuliginea; Example R6, gherkin, 100 ppm, read-out: Efficacy in %): 100%
- pest or weed control at 500 ppm (Sphaerotheca fuliginea; Example R6, gherkin, 500 ppm, read-out: Efficacy in %): 100%
- pest or weed control at 100 ppm (Phakopsora pachyrhizi): 90 to 100%
- pest or weed control at 500 ppm (Leptosphaeria nodorum [5]): 90 to 100%
- pest or weed control at 500 ppm (Septoria tritici [6]; 500 ppm of active ingredient, wheat, preventive spray, evaluated 24 days after inoculation, read-out: efficacy): 90 to 100%
- pest or weed control at 100 ppm (Septoria tritici [6]; Example Q3, rate of application 100 ppm, wheat, read-out: Efficacy in %): 100%
- pest or weed control at 500 ppm (Septoria tritici [6]; Example Q3, rate of application 500 ppm, wheat, read-out: Efficacy in %): 100%
- pest or weed control at 100 ppm (Septoria tritici [6]; Example R5, wheat, preventive spray, 100 ppm, evaluated 24 days after inoculation, read-out: Efficacy in %): 100%
- pest or weed control at 500 ppm (Septoria tritici [6]; Example R5, wheat, preventive spray, 500 ppm, evaluated 24 days after inoculation, read-out: Efficacy in %): 100%
- Septoria tritici ED50 value in ppm (Septoria tritici [7]): <0.006 ppm
- pest or weed control at 500 ppm (Fusarium culmorum [8]): 80 to 89%
- Botrytis cinerea ED50 value in ppm (Botrytis cinerea [9]): 0.26 ppm
- Leptosphaeria nodorum ED50 value in ppm (Leptosphaeria nodorum [10]): 0.02 ppm
- pest or weed control at 500 ppm (Uromyces appendiculatus; 500 ppm of active ingredient, bean, read-out: efficacy): 90 to 100%
- pest or weed control at 100 ppm (Uromyces appendiculatus; Example R7, bean, 100 ppm, read-out: Efficacy in %): 100%
- pest or weed control at 500 ppm (Uromyces appendiculatus; Example R7, bean, 500 ppm, read-out: Efficacy in %): 100%
- pest or weed control at 100 ppm (Venturia inaequalis): 90 to 100%
- pest or weed control at 500 ppm (Fusarium graminearum): 90 to 100%

Compound: OC(Cc1ccc(Cl)cc1F)(Cn1ccnc1)C1(Cl)CC1 (racemic) [reference compound]
- Efficacy in % (Pyrenophora teres; Example Q2, rate of application 100 ppm): 0%
- Efficacy in % (Pyrenophora teres; Example Q2, rate of application 500 ppm): 0%
- Efficacy in % (Botrytis cinerea [2]; Example Q1, rate of application 100 ppm): 70%
- Efficacy in % (Botrytis cinerea [2]; Example Q1, rate of application 500 ppm): 100%
- Fusarium culmorum ED50 value in ppm (Fusarium culmorum [3]): 0.04 ppm
- Efficacy in % (Septoria tritici [6]; Example Q3, rate of application 100 ppm, wheat): 0%
- Efficacy in % (Septoria tritici [6]; Example Q3, rate of application 500 ppm, wheat): 100%
- Septoria tritici ED50 value in ppm (Septoria tritici [7]): 0.02 ppm
- Botrytis cinerea ED50 value in ppm (Botrytis cinerea [9]): 0.53 ppm
- Leptosphaeria nodorum ED50 value in ppm (Leptosphaeria nodorum [10]): 0.04 ppm
